Here are results for 1 molecule from ChEMBL document CHEMBL6134853, “Design, Synthesis, and Biological Evaluation of Pyrrolo[1,2-a]quinoxalin-4(5H)-one Derivatives as Potent and Orally Available Noncovalent Bruton's Tyrosine Kinase (BTK) Inhibitors” (J Med Chem, 2025).

Data set [1] can be described thus: MRT (0 to 5 hrs) in male Sprague-Dawley rat at 10 mg/kg, po measured up to 5 hrs by LC-MS/MS analysis. Type of data set: ADME, organism-based. Particulars: in vivo.
Data set [2] deals with U-937. Description: Induction of apoptosis in human U-937 cells incubated for 2 days by Annexin V/PI staining based flow cytometry analysis. Particulars: dose 1-10 µM, time 2.0 day. Type of data set: functional, cell-based.
Data set [3] has as its system U-937. Description: Antitumor activity against human U-937 cells xenografted in BALB/c mouse assessed as reduction in Ki67 expression in tumor at 50 mg/kg, po administered once a day for 14 days by immunohistochemical analysis. The settings on record: time 14.0 day. In kind it is functional, organism-based.
Data set [4] is described as follows: Toxicity in BALB/c mouse xenografted with human U-937 cells assessed as parenchymal injury in kidney at 50 to 100 mg/kg, po administered once a day for 14 days by H and E staining based analysis. Type of data set: organism-based. Particulars: in vivo, 336 h, dose 50-100 mg/kg, time 14 day.
Data set [5] addresses Tyrosine-protein kinase BTK (Homo sapiens, UniProt Q06187). Description: Inhibition of BTK (unknown origin) by HTRF analysis.
Data set [6] addresses T1, Tyrosine-protein kinase Tec (Homo sapiens) (UniProt P42680).
T1 sequence (whole entry): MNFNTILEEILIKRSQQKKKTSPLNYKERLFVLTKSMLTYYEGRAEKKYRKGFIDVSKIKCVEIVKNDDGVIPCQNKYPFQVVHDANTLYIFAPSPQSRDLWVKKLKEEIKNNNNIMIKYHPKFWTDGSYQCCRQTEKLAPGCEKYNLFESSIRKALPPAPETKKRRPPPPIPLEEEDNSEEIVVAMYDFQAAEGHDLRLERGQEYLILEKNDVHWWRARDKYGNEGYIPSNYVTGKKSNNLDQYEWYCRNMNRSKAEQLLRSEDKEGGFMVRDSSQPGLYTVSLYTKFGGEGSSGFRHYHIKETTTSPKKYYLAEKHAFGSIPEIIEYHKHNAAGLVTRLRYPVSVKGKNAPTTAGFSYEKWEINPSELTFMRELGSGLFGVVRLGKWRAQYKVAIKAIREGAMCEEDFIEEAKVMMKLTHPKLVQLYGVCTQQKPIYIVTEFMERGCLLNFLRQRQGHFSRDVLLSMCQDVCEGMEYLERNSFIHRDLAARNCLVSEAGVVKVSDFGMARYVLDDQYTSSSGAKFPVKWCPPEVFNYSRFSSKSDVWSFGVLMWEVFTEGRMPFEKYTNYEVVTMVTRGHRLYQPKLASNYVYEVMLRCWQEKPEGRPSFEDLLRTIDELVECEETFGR
Description: Inhibition of TEC (unknown origin) at 100 nM relative to control.

Data set [7] can be described thus: Toxicity in BALB/c mouse xenografted with human U-937 cells assessed as inflammatory infiltration in heart at 50 to 100 mg/kg, po administered once a day for 14 days by H and E staining based analysis. Type of data set: organism-based. The settings on record: in vivo, 336 h, dose 50-100 mg/kg, time 14 day.
The target in data set [8] is Phosphatidylinositol 4-phosphate 5-kinase type-1 alpha (Homo sapiens) (UniProt Q99755). Description: Inhibition of PIP5K1A (unknown origin) at 100 nM relative to control.
Phosphatidylinositol 4-phosphate 5-kinase type-1 alpha (Homo sapiens), sequence (Q99755 whole entry): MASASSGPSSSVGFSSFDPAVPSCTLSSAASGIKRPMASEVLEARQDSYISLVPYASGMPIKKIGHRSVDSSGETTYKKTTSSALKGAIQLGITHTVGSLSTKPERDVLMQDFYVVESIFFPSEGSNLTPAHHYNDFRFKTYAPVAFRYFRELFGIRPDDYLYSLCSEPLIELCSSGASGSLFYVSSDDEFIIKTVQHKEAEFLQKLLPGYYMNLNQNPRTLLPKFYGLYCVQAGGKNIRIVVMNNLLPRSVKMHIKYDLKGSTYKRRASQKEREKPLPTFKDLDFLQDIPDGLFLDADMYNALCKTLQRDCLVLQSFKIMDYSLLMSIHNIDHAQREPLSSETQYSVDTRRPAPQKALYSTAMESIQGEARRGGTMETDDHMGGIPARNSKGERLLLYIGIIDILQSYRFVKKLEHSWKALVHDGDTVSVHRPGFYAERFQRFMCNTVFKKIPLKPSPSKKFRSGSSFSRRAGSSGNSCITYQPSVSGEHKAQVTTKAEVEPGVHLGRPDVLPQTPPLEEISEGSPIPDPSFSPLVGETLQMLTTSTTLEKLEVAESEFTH
For data set [9], the system named is U-937. Description: Antitumor activity against human U-937 cells xenografted in BALB/c mouse assessed as tumor growth inhibition at 50 mg/kg, po administered once a day for 14 days. In kind it is functional. Particulars: U-937, 336 h, time 14 day, read-out: TGI.
Data set [10] in a line: Toxicity in BALB/c mouse xenografted with human U-937 cells assessed as change in body weight at 50 to 100 mg/kg, po administered once a day for 14 days. Type of data set: organism-based. The settings on record: in vivo, 336 h, dose 50-100 mg/kg, time 14 day.
For the next data set, the system named is Ramos. Description: Antiproliferative activity against human Ramos cells expressing BTK assessed as inhibition of cell proliferation incubated for 48 hrs by CCK-8 assay. Type of data set: functional, cell-based.
Data set [11] deals with T2, Serine/threonine-protein kinase RIO3 (Homo sapiens) (UniProt O14730).
T2 sequence (whole entry): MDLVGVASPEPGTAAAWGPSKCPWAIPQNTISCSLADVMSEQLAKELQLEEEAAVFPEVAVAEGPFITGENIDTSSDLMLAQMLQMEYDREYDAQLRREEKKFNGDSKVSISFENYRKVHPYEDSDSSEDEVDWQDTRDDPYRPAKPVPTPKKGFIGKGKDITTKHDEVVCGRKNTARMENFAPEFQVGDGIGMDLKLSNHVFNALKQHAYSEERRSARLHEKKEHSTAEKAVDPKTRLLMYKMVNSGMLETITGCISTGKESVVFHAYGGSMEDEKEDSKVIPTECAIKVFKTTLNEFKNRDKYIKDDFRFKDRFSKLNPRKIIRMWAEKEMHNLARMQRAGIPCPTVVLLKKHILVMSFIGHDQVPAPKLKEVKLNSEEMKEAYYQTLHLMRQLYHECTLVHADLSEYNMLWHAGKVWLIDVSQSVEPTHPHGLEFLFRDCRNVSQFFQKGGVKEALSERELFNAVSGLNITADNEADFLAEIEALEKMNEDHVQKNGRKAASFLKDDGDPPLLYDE
Description: Inhibition of RIOK3 (unknown origin) at 100 nM relative to control.

Active and inactive are the calls of the source. No cut-off for these calls is given here.

Tyrosine-protein kinase BTK, sequence (Q06187 whole entry): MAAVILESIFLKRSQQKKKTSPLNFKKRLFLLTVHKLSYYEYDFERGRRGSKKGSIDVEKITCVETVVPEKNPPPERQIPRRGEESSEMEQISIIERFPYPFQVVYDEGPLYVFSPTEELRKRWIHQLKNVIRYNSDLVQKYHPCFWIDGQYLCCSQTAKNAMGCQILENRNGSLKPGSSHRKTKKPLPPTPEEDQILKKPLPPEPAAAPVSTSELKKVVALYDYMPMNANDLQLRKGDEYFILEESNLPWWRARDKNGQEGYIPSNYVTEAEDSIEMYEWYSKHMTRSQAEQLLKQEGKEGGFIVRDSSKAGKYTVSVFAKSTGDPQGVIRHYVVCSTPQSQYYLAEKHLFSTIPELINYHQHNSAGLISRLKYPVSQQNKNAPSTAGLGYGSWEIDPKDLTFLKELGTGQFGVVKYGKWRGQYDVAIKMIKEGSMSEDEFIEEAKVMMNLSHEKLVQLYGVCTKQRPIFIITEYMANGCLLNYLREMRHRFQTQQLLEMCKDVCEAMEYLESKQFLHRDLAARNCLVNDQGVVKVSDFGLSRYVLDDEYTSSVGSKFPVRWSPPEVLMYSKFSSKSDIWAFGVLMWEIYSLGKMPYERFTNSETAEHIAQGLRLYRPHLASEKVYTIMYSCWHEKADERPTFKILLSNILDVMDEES

On to `CC(C)(O)c1ccc2c(c1)[nH]c(=O)c1ccc(-c3cccc(-n4c(=O)[nH]c5c(F)cccc5c4=O)c3F)n12`, for which the MRT last at 5 h in data set [1] was 1.48 h. Further, the Activity entry is “Dose-dependent-effect” with U-937 [2], “Non-toxic” in [4], “Non-toxic” in [7] and “Non-toxic” in data set [10]. In the data set with U-937 [3], the result was Active. Moreover, the IC50 was determined as 21.6 nM in data set [5] and 8 µM in the data set on Ramos. Also, the inhibition entry in data set [6], in [8] and in data set [11] was “Active” throughout. For the same molecule, in the data set with U-937 [9], the inhibition in vivo at 50 mg/kg was determined as 64.4%.
